Where two headings read alike, the source gives them in different places.
Test: Reporter assay (No. 1), cell number reporter gene (sea pansy luciferase, pRL-TK), clone of Example 2
Type: cell-based
Settings: mouse, hepa1c1c7 cells, about 40 hours, ratio to 0 pg/ml, read-out: Amount of luminescence by sea pansy luciferase (from pRL-TK) Ratio
Experimental: For the measured values of the amount of expression of the cell number reporter gene, a ratio is determined of the measured value in the test substance added group to the measured value in the only solvent added group (control group). When the ratio is, for example, in the range of 0.8 to 1.2, the measured value of the amount of expression of the ligand responsive reporter gene in the test substance added group is selected for evaluating the agonist or antagonist activity of the test substance against the ability of a ligand responsive transcriptional regulatory factor to promote transcription. When the ratio takes a small value such as smaller than 0.8, for example, it is possible that the test substance has cytotoxicity. In contrast, when the ratio takes a large value such as greater than 1.2, for example, it is possible that the test substance has activity against the transcriptional regulatory system of a gene without mediation of a ligand responsive transcriptional regulatory factor. However, the range of this ratio suitable for selecting the measured value of the amount of expression of the […] reporter gene may vary depending on certain properties of the present cells used and the conditions of measurement, and it is not limited to the above examples of numerical values.
Separately, plasmid pGV-Ya-XREx5 (ligand responsive reporter gene containing plasmid) constructed in Example 1 was digested with Bam HI. Further, plasmid pRL-TK (cell number reporter gene containing plasmid; marketed by Toyo Ink) containing the sea pansy luciferase gene used as the cell number reporter gene was digested with Bam HI, and neomycin resistance (aminoglycoside phosphotransferase) gene containing plasmid pRc/RSV (available from INVITROGEN) was digested with Hind III. These three digested plasmids, i.e., Bam HI digested pGV-Ya-XREx5 (2.8 µg), Bam HI digested pRL-TK (2.8 µg), and Hind III digested pRc/RSV (0.5 µg), were then mixed with 300 µl of αMEM medium (mixture A), while 36 µl of lipofectin (available from GIBCO-BRL) was mixed with 300 µl of αMEM medium (mixture B). After being left at room temperature for 30 minutes, mixtures A and B were combined together and left at room temperature for 10 minutes. The Hepa1clc7 cells cultured overnight as described above were then washed once with αMEM medium, to which there was added a solution prepared by adding and mixing additional 5.4 ml of αMEM medium to the above mixture (A + B). Culturing of the resulting mixture was carried out for 5 hours. The medium was then replaced with 10% serum containing αMEM medium, followed by further culturing overnight. Subsequently, the cells were scratched from the petri dishes and collected, and the collected cells were suspended in 10% serum containing αMEM medium to have the total volume of 100 ml. The resulting cell suspension was plated on 96 well plates at a ratio of 100 µl/well. After these plates were cultured overnight, a medium prepared by dissolving geneticin (hereinafter referred to as "G418") in 10% serum containing αMEM medium to have a concentration of 1.6 mg/ml was added at a ratio of 100 µl/well (G418 final concentration 800 µg/ml). Culturing was further continued for 3 weeks, during which the medium was replaced with 10% serum containing αMEM medium containing 800 µg/ml G418 at a rate of once per week. The volume of the medium was set at 200 µl/well. After said 3 weeks, cells were scratched from the wells in which colony formation had been observed, and collected (for 192 wells), and the collected cells were divided into three and independently plated on different plates, followed by continuous culturing for 4 days. To the first plate, only DMSO was added (solvent control), and to the second plate, 3-methylcholanthrene (hereinafter referred to as "3-MC") dissolved in DMSO was added so that the final concentration of 3-MC in the second plate came to 10 µM per well. The first and second plates were then cultured overnight. […]

## Clc1cc2c(cc1Cl)Oc1cc(Cl)c(Cl)cc1O2 [TCDD, 2,3,7,8-tetrachlorodibenzo-p-dioxin]
Final conc. 0.02 pg/ml
  viability at 40 h: 100%
Final conc. 0.2 pg/ml
  viability at 40 h: 90%
Final conc. 2 pg/ml
  viability at 40 h: 90%
Final conc. 20 pg/ml
  viability at 40 h: 80%
Final conc. 200 pg/ml
  viability at 40 h: 70%
Final conc. 2000 pg/ml
  viability at 40 h: 60%
Final conc. 20000 pg/ml
  viability at 40 h: 60%

Source: patent EP1148124A1 (priority 1999, dated 2000)
